Assay [1] has as its system Rhizoctonia solani. Kind of assay: Pea test in soil inoculated with Rhizoctonia solani (Example 3). The note with it: for Number of sound peas after 3 wks.: 25 grains seeded; for Root evaluation (1-4): 3 weeks. The format is in vivo. The text has this: Steamed compost soil was inoculated with mycelium of Rhizoctonia solani. After homogeneous mixture of the products with the infested soil, the products were present in the form of 20% powder preparations, the seeding of 25 grains of marrow peas of the variety Miracle of Kelvedon per concentration was effected without waiting period in clay dishes holding 1 liter of soil. The table lists the number of germinated sound peas, the weight of the fresh plant, and a root evaluation after a cultivation period of 3 weeks at 22°-25° C.

Assay [2] relates to Pythium ultimum. The assay can be described thus: Pea test in soil inoculated with Pythium ultimum (Example 2). The format is in vivo. Also on record: key to Root evaluation (1-4): 4 = white roots, no necroses … 1 = severe necroses, roots rotted. The note with it: for Number of sound peas after 3 wks.: 25 grains seeded; for Root evaluation (1-4): 3 weeks. On the procedure: Steamed compost soil was inoculated with mycelium of Pythium ultimum. […] The following table lists the number of germinated sound peas, the weight of the fresh plant, and a root evaluation after a cultivation period of 3 weeks at 22°-25° C.
4 = white roots, without fungus necroses
3 = white roots, slight fungus necroses
2 = brown roots, more intense fungus necroses
1 = severe fungus necroses, roots rotted

Assay [3] relates to Fusarium oxysporum f. callistephi. Kind of assay: Soil inoculated with Fusarium oxysporum f. callistephi, Callistephus chinensis host plants (Example 5). The note with it: four seedlings per concentration. The format is in vivo. The text has this: Steamed compost soil was inoculated with a spore suspension of Fusarium oxysporum f. callistephi. After homogeneous mixture of the products with the infested soil, the products were present as 20% powder preparations, and after a waiting period of 8 days, there were set out per concentration four seedlings of Callistephus chinensis, master aster "Sun Ray" as host plants.

Assay [4] has as its system Pythium ultimum. The assay can be described thus: Fungicidal effect in the vapor phase, Pythium ultimum (Example 11). Format: cell-based. The note with it: even at 1 mg active ingredient per liter; 3 days, 22° C.; 10% powder. The procedure: (§1) Nutrient medium inoculated with nycelium of Pythium ultimum or Rhizoctonia solani in open Petri dishes was placed in glass vessels 12 cm tall. First the quantity of product as a 10% powder preparation had been placed on the bottom of the glasses. After a reaction time of 3 days (Pythium) and 5 days (Rhizoctonia) at a temperature of 22° C. in the covered glass vessel, the mycelium growth was evaluated.

A further assay deals with Stemphylium ilicis. The assay can be described thus: Agar test, Stemphylium ilicis (Example 7). The format is cell-based. The note with it: 10 ppm in malt extract agar, 5 days at 22° C.; control 100. On the procedure: (§2) The fungicidal action of the agents according to the invention was tested in artificial nutrient media against plant-pathogenic fungi in Petri dishes (agar test). The procedure was to sterilize the medium consisting of 2% malt extract and 1.5% agar-agar powder. Before the solidification of the medium, the active substances were added to it, mixing thoroughly, so that the medium received 10 parts of active substance per million (ppm). After the solidification of the medium, the latter was inoculated with a platinum dropper which contained 100 spores each of the fungi to be tested, and after 5 days at 22° C., an evaluation was made by measuring the diameter of the colonies in mm.

For assay [5], the system named is Rhizoctonia solani. The assay can be described thus: Fungicidal effect in the vapor phase, Rhizoctonia solani (Example 11). The format is cell-based. The note with it: even at 1 mg active ingredient per liter; 5 days, 22° C.; 10% powder. The procedure:
as §1

In another assay the test system is Aspergillus niger. Kind of assay: Agar test, Aspergillus niger (Example 7). Format: cell-based. The note with it: 10 ppm in malt extract agar, 5 days at 22° C.; control 100. On the procedure: as §2
Assay [6] has as its system Pythium ultimum. The assay can be described thus: Limit concentration of soil-fungicidal effectiveness, Pythium ultimum infested soil, peas (Example 1). Format: in vivo. The note with it: Globisporangium ultimum, 20 to 23 days, 22°-25° C., germination at least 90% vs steamed soil. On the procedure: Limit concentrations of the soil-fungicidal effectiveness at homogeneous mixture of the products with the infested soil. Basic condition in the evaluation are a sound root formation without fungus necroses and germination of the seed of at least 90% compared with the result obtained in steamed soil. Per concentration there were seeded 25 grains of peas of the variety "Miracle of Kelvedon" (marrow pea) without a waiting period. the cultivation time in the tests was 20 to 23 days at a temperature of 22°-25° C. Four commercial products were included in the test series.
Pythium ultimum: Steamed compost soil was inoculated with mycelium of Pythium ultimum

Another assay relates to Meloidogyne incognita. The assay can be described thus: Nematocidal action against root gall nematodes, cucumber (Example 8). Format: in vivo. The note with it: reduction of attack, 30 days. The procedure:
The products as 20% powder preparations were homogeneously admixed with a compost soil heavily infested by root gall nematodes. Without a waiting period, 20 cucumber seeds per concentration were seeded. After a cultivation time of 30 days at a temperature of 23°-25° C., the nematocidal action was evaluated by counting the root galls formed in the waterbath. The following table states the reduction of attack in percent. In the control, an average of 90 root galls per seedling had formed.

Setting [7] is: 10 mg active ingr. per liter of soil.
Setting [8] is: 20 mg active ingr. per liter of soil.
[9] abbreviates: 30 mg active ingr. per liter of soil.
The mark [10] stands for this setting: 200 mg active ingr. per liter of soil.
Where [11] appears, read: 50 mg active ingr. per liter of soil.
Setting [12] is: 100 mg active ingr. per liter of soil.
The mark [13] stands for this setting: 40 mg active substance per liter of soil.
Setting [14] is: 60 mg active substance per liter of soil.

SMILES strings stand for the structures.

On to `COc1cc(Cl)c(OC)cc1Cl` [1,4-dichloro-2,5-dimethoxybenzene, reference compound], for which the “Number of sound peas after 3 wks.” value in the assay with Rhizoctonia solani [1] (setting [7]) was 0; in the assay with Rhizoctonia solani [1] (setting [8]), 0; in the assay on Rhizoctonia solani [1] (setting [9]), 21; with Rhizoctonia solani [1] (40 mg active ingr. per liter of soil), 22; in the assay with Pythium ultimum [2] (setting [10]) it was 2. Also, the “No. of attacked plants after 3 weeks” value in [3] (setting [11]), in assay [3] (setting [12]) and in [3] (setting [10]) was 4 in each case.

With `CS(=O)(=O)c1nnc(C(F)(F)F)s1` [Compound 1, 2-trifluoromethyl-5-methylsulfonyl-1,3,4-thiadiazole], in the assay with Pythium ultimum [4], the “mycelium growth, Pythium ultimum, vapor phase” value was “no mycelium growth”. Besides, in the assay with Stemphylium ilicis, the “diameter of the colonies, Stemphylium ilicis” value (shortened to “diameter … Stemphylium ilicis”) is on record as 0 mm. In addition, in the assay with Rhizoctonia solani [5], the “mycelium growth, Rhizoctonia solani, vapor phase” value is “no mycelium growth”. The “Root evaluation (1-4)” value with Pythium ultimum [2] (setting [7]), in the assay on Pythium ultimum [2] (setting [8]) and with Pythium ultimum [2] (setting [9]) was 4 in each case. For the same compound, in the assay on Pythium ultimum [2] (setting [8]), the “Number of sound peas after 3 wks.” value is given as 22. The “diameter of the colonies, Aspergillus niger” value (“diameter … Aspergillus niger” for short) in the assay on Aspergillus niger came to 0 mm. Besides, the minimal effective concentration in the assay with Pythium ultimum [6] stood at 10 µg/mL.

With `CC[S+]([O-])c1nnc(C(Cl)Cl)s1` (centres unmarked) [Compound 4, 2-dichloromethyl-5-ethylsulfinyl 1,3,4-thiadiazole], the “Nematocidal action in % (Meloidogyne incognita)” value (shortened to “Nematocidal action in %”) is 96% in the assay on Meloidogyne incognita (setting [13]) and 99% with Meloidogyne incognita (setting [14]). The compound further returned a minimal effective concentration in the assay on Pythium ultimum [6] of 100 µg/mL.

For the compound `CCC[S+]([O-])c1nnc(C(Cl)Cl)s1` (centres unmarked) [Compound 5, 2-dichloromethyl-5-propylsulfinyl-1,3,4-thiadiazole], the “Nematocidal action in %” value in the assay with Meloidogyne incognita (setting [13]) is on record as 90%; in the assay with Meloidogyne incognita (setting [14]), 98%. The minimal effective concentration in the assay on Pythium ultimum [6] was 100 µg/mL.

Take `C[S+]([O-])c1nnc(C(Cl)(Cl)Cl)s1` (centres unmarked) [Compound 8, 2-trichloromethyl-5-methylsulfinyl-1,3,4-thiadiazole]: the “Root evaluation (1-4)” value in the assay on Rhizoctonia solani [1] (setting [7]) is 4; in the assay on Rhizoctonia solani [1] (setting [8]), 4; in the assay on Rhizoctonia solani [1] (setting [9]), 4; with Pythium ultimum [2] (setting [7]), 1; in the assay with Pythium ultimum [2] (setting [8]), 4; with Pythium ultimum [2] (setting [9]) it was 4. Also, in the assay with Stemphylium ilicis, the “diameter … Stemphylium ilicis” value came to 0 mm. In addition, the “diameter … Aspergillus niger” value in the assay with Aspergillus niger was determined as 0 mm. This compound also registered a minimal effective concentration in the assay on Pythium ultimum [6] of 20 µg/mL.

Take `CC[S+]([O-])c1nnc(C(Cl)(Cl)Cl)s1` (centres unmarked) [Compound 9, 2-trichloromethyl-5-ethylsulfinyl-1,3,4-thiadiazole]: the “Root evaluation (1-4)” value with Rhizoctonia solani [1] (setting [7]), with Rhizoctonia solani [1] (setting [8]) and with Rhizoctonia solani [1] (setting [9]) was 4 each time. Further, the “diameter … Stemphylium ilicis” value with Stemphylium ilicis was found to be 0 mm. Also, in the assay with Aspergillus niger, the “diameter … Aspergillus niger” value is 0 mm. This compound also yielded a minimal effective concentration with Pythium ultimum [6] of 200 µg/mL.

Consider `CCS(=O)(=O)c1nnc(C(Cl)Cl)s1` [Compound 18, 2-dichloromethyl-5-ethylsulfonyl-1,3,4-thiadiazole], for which the “diameter … Stemphylium ilicis” value in the assay with Stemphylium ilicis was 0 mm. The “diameter … Aspergillus niger” value with Aspergillus niger was determined as 0 mm. Besides, the “Nematocidal action in %” value in the assay on Meloidogyne incognita (setting [13]) came to 61%; with Meloidogyne incognita (setting [14]), 90%. The compound also displayed a minimal effective concentration in the assay on Pythium ultimum [6] above 200 µg/mL.

For `CCCS(=O)(=O)c1nnc(C(Cl)Cl)s1` [Compound 19, 2-dichloromethyl-5-propylsulfonyl-1,3,4-thiadiazole], the “diameter … Stemphylium ilicis” value in the assay with Stemphylium ilicis is on record as 0 mm. The “diameter … Aspergillus niger” value with Aspergillus niger was determined as 0 mm. In addition, the figures for the “Nematocidal action in %” value in the assay with Meloidogyne incognita (setting [13]) and in the assay on Meloidogyne incognita (setting [14]) were 72% and 82%, respectively. For the same compound, the minimal effective concentration in the assay on Pythium ultimum [6] is 100 µg/mL.

As to `CCCS(=O)(=O)c1nnc(C(Cl)(Cl)Cl)s1` [Compound 23, 2-trichloromethyl-5-propylsulfonyl-1,3,4-thiadiazole], the “Root evaluation (1-4)” value in the assay with Rhizoctonia solani [1] (setting [7]) came to 1; in the assay with Rhizoctonia solani [1] (setting [8]) it was 3; in the assay with Rhizoctonia solani [1] (setting [9]) it was 4. Besides, the “diameter … Stemphylium ilicis” value with Stemphylium ilicis was determined as 0 mm. The “diameter … Aspergillus niger” value with Aspergillus niger is given as 0 mm. This compound gave a minimal effective concentration in the assay with Pythium ultimum [6] of 150 µg/mL.

`CCCCCCS(=O)(=O)c1nnc(C(Cl)(Cl)Cl)s1` [Compound 27, 2-trichloromethyl-5-hexylsulfonyl-1,3,4-thiadiazole]: in the assay on Stemphylium ilicis, the “diameter … Stemphylium ilicis” value came out at 0 mm. Besides, in the assay with Aspergillus niger, the “diameter … Aspergillus niger” value came to 0 mm. The compound also showed a minimal effective concentration in the assay with Pythium ultimum [6] above 200 µg/mL.

In the case of `CCCCCCCS(=O)(=O)c1nnc(C(Cl)(Cl)Cl)s1` [Compound 28, 2-trichloromethyl-5-heptysulfonyl-1,3,4-thiadiazole], the “diameter … Stemphylium ilicis” value in the assay with Stemphylium ilicis is 0 mm. Besides, the “diameter … Aspergillus niger” value with Aspergillus niger was determined as 0 mm. This compound also gave a minimal effective concentration with Pythium ultimum [6] above 200 µg/mL.

Consider `CCCCCCCCS(=O)(=O)c1nnc(C(Cl)(Cl)Cl)s1` [Compound 29, 2-trichloromethyl-5-octylsulfonyl-1,3,4-thiadiazole], for which the “diameter … Stemphylium ilicis” value with Stemphylium ilicis is reported as 0 mm. The “diameter … Aspergillus niger” value in the assay with Aspergillus niger came to 19 mm. The minimal effective concentration in the assay on Pythium ultimum [6] is above 200 µg/mL.

As for `CS(=O)(=O)c1nnc(C(Br)Br)s1` [Compound 32, 2-dibromomethyl-5-methylsulfonyl-1,3,4-thiadiazole], the “diameter … Stemphylium ilicis” value with Stemphylium ilicis was found to be 0 mm. Moreover, the “diameter … Aspergillus niger” value in the assay with Aspergillus niger is listed as 0 mm. Moreover, the minimal effective concentration in the assay with Pythium ultimum [6] stood at 20 µg/mL.

As for `C[S+]([O-])c1nnc(C(F)(F)F)s1` (centres unmarked) [Compound 35, 2-trifluoromethyl-5-methylsulfinyl-1,3,4-thiadiazole], the “mycelium growth, Pythium ultimum, vapor phase” value in the assay with Pythium ultimum [4] is reported as “no mycelium growth”. The “mycelium growth, Rhizoctonia solani, vapor phase” value in the assay on Rhizoctonia solani [5] is on record as “no mycelium growth”. The same compound displayed a minimal effective concentration in the assay on Pythium ultimum [6] of 10 µg/mL.

Regarding `CC[S+]([O-])c1nnc(C(F)(F)F)s1` (centres unmarked) [Compound 36, 2-trifluoromethyl-5-ethylsulfinyl-1,3,4-thiadiazole], in the assay with Pythium ultimum [4], the “mycelium growth, Pythium ultimum, vapor phase” value was “no mycelium growth”. Moreover, the “mycelium growth, Rhizoctonia solani, vapor phase” value in the assay with Rhizoctonia solani [5] is given as “no mycelium growth”. In the assay on Pythium ultimum [6], the minimal effective concentration worked out at 10 µg/mL.

Turning to `CCS(=O)(=O)c1nnc(C(F)(F)F)s1` [Compound 40, 2-trifluoromethyl-5-ethylsulfonyl-1,3,4-thiadiazole], the “mycelium growth, Pythium ultimum, vapor phase” value in the assay with Pythium ultimum [4] was “no mycelium growth”. In addition, the “mycelium growth, Rhizoctonia solani, vapor phase” value with Rhizoctonia solani [5] is given as “no mycelium growth”. In addition, the minimal effective concentration in the assay with Pythium ultimum [6] stood at 10 µg/mL.

Take `O=C1C2CC=CCC2C(=O)N1SC(Cl)(Cl)Cl` (centres unmarked) [N-(trichloromethylthio)-cyclohex-4-ene-1,2-dicarboximide]: the “Root evaluation (1-4)” value in the assay on Pythium ultimum [2] (setting [10]) amounted to 1. In the assay on Pythium ultimum [2] (setting [10]), the “Number of sound peas after 3 wks.” value worked out at 13. In addition, the “No. of attacked plants after 3 weeks” value in [3] (setting [11]), in assay [3] (setting [12]) and in [3] (setting [10]) was 4 each time.
